Measurements taken from patent publication US20070128217A1 (priority 2003, published 2007).

Key:
[1] = system: control sera (pooled serum of ten healthy LUMC hospital workers; commercial negative donor pooled serum from the Dutch bloodbank); assay type: binding, human; design: Binding of Control serum LUMC to linear peptides / Binding of Control serum Blood-bank to linear peptides / Binding of Control serum LUMC to looped peptides / Binding of Control Serum Blood-Bank to Looped peptides / Binding of Control serum LUMC to linear peptides of the protein M of SARS-CoV Urbani / Binding of Control serum Blood-bank to linear peptides of the protein M of SARS-CoV Urbani / Binding of Control serum LUMC to looped peptides of the protein M of SARS-CoV Urbani / Binding of Control Serum Blood-Bank to Looped peptides of the protein M of SARS-CoV Urbani: unit not given here
[2] = system: antibodies in sera from SARS patients (sera 1a, 1b, 2, 6, 37, 62, London, SARS-yellow, SARS-green); assay type: binding, human; design: Binding of serum 6 to linear peptides of protein X1 of SARS-CoV Urbani / Binding of serum 37 to linear peptides of protein X1 of SARS-CoV Urbani / Binding of serum 6 to looped/cyclic peptide (PEPSCAN-ELISA) / Binding of serum 37 to looped/cyclic peptide (PEPSCAN-ELISA) / Binding of serum 37 to looped/cyclic peptides of protein X1 of SARS-CoV Urbani / Binding of serum 6 to linear peptides of protein X2 / Binding of serum 37 to linear peptides of protein X2 / Binding of serum 37 to looped/cyclic peptides of protein X2 of SARS-CoV Urbani / Binding of serum 6 to linear peptides of protein M of SARS-CoV Urbani / Binding of serum 37 to linear peptides of protein M of SARS-CoV Urbani / Binding of serum 6 to looped/cyclic peptides of protein M of SARS-CoV Urbani / Binding of serum 37 to looped/cyclic peptides of protein M of SARS-CoV Urbani / Binding of serum 6 to linear peptides of protein X3 of SARS-CoV Urbani / Binding of serum 37 to linear peptides of protein X3 of SARS-CoV Urbani / Binding of serum 37 to looped/cyclic peptides of protein X3 of SARS-CoV Urbani / Binding of serum 6 to linear peptides of protein X4 of SARS-CoV Urbani / Binding of serum 37 to linear peptides of protein X4 of SARS-CoV Urbani / Binding of serum 37 to looped/cyclic peptides of protein X4 of SARS-CoV Urbani / Binding of serum 6 to linear peptides of protein X5 of SARS-CoV Urbani / Binding of serum 37 to linear peptides of protein X5 of SARS-CoV Urbani / Binding of serum 37 to looped/cyclic peptides of protein X5 of SARS-CoV Urbani / Binding of serum 6 to linear peptides of protein N of SARS-CoV Urbani / Binding of serum 37 to linear peptides of protein N of SARS-CoV Urbani / Binding of serum 6 to linear peptide (PEPSCAN-ELISA) / Binding of serum 1a to looped/cyclic peptides of protein N of SARS-CoV Urbani / Binding of serum 1b to looped/cyclic peptides of protein N of SARS-CoV Urbani / Binding of serum 2 to looped/cyclic peptides of protein N of SARS-CoV Urbani / Binding of serum 6 to looped/cyclic peptides of protein N of SARS-CoV Urbani / Binding of serum 37 to looped/cyclic peptides of protein N of SARS-CoV Urbani / Binding of serum 62 to looped/cyclic peptides of protein N of SARS-CoV Urbani / Binding of serum London to looped/cyclic peptides of protein N of SARS-CoV Urbani / Binding of serum SARS-green to looped/cyclic peptides of protein N of SARS-CoV Urbani: unit not given here
[3] = system: rabbit serum obtained by immunizing a rabbit with the SARS-CoV strain Frankfurt 1; assay type: binding; design: Binding of a rabbit serum to linear peptides / Binding of a rabbit serum to looped peptides / Rabbit serum linear peptides / Rabbit serum looped peptides / Binding of a rabbit serum to linear peptides of protein N of SARS-CoV Urbani (Rabbit serum linear peptides) / Binding of a rabbit serum to looped/cyclic peptides of protein N of SARS-CoV Urbani (Rabbit serum looped peptides): unit not given here
[4] = system: recombinant human anti-SARS-CoV antibody 03-018; assay type: binding; design: Binding of antibody 03-018 to linear peptides of the N protein of SARS-CoV Urbani / Binding of antibody 03-018 to looped/cyclic peptides of the N protein of SARS-CoV Urbani: unit not given here

Sequence | Binding of Control Serum Blood-Bank to Looped peptides [1] | Binding of Control serum Blood-bank to linear peptides [1] | Binding of Control serum LUMC to linear peptides [1] | Binding of Control serum LUMC to looped peptides [1] | Binding of serum 1a to linear peptides of protein N of SARS-CoV Urbani [2] | Binding of serum 1a to looped/cyclic peptides of protein N of SARS-CoV Urbani [2] | Binding of serum 1b to linear peptides of protein N of SARS-CoV Urbani [2] | Binding of serum 1b to looped/cyclic peptides of protein N of SARS-CoV Urbani [2] | Binding of serum 2 to linear peptides of protein N of SARS-CoV Urbani [2] | Binding of serum 2 to looped/cyclic peptides of protein N of SARS-CoV Urbani [2] | Binding of serum 6 to looped/cyclic peptides of protein N of SARS-CoV Urbani [2] | Binding of serum 37 to looped/cyclic peptides of protein N of SARS-CoV Urbani [2] | Binding of serum 62 to looped/cyclic peptides of protein N of SARS-CoV Urbani [2] | Binding of serum London to looped/cyclic peptides of protein N of SARS-CoV Urbani [2] | Binding of serum SARS-green to looped/cyclic peptides of protein N of SARS-CoV Urbani [2] | Binding of serum SARS-yellow to looped/cyclic peptides of protein N of SARS-CoV Urbani [2] | Binding of a rabbit serum to linear peptides of protein N of SARS-CoV Urbani (Rabbit serum linear peptides) [3] | Binding of a rabbit serum to looped/cyclic peptides of protein N of SARS-CoV Urbani (Rabbit serum looped peptides) [3] | Binding of antibody 03-018 to linear peptides of the N protein of SARS-CoV Urbani [4] | Binding of antibody 03-018 to looped/cyclic peptides of the N protein of SARS-CoV Urbani [4] | further results
KQRRPQGLPNNTASW | 0.6 | 0.7 | 0.5 | 0.6 | 0.2 | 0.4 | 0.1 | 0.2 | 0.2 | 0.4 | 0.4 | 0.6 | 0.5 | 0.6 | 0.3 | 0.7 | 0.1 | 0.6 | 0.1 | 0.2 | Binding of serum 6 to linear peptides of protein N of SARS-CoV Urbani [2]: 0.1; Binding of serum 37 to linear peptides of protein N of SARS-CoV Urbani [2]: 0.7; Binding of serum 62 to linear peptides of protein N of SARS-CoV Urbani [2]: 0.6; Binding of serum London to linear peptides of protein N of SARS-CoV Urbani [2]: 0.4; Binding of serum SARS-green to linear peptides of protein N of SARS-CoV Urbani [2]: 0.3; Binding of serum SARS-yellow to linear peptides of protein N of SARS-CoV Urbani [2]: 0.5
KTDEAQPLPQRQKKQ | – | – | – | – | 0.3 | 0.3 | 0.2 | 0.1 | 0.3 | 0.3 | 0.6 | 0.3 | 0.1 | 0.7 | 0.2 | 0.5 | 0.0 | 0.0 | 0.1 | 0.2 | Control Serum Blood-Bank Looped peptides [1]: 0.4; Control serum Blood-bank linear peptides [1]: 0.7; Control serum LUMC linear peptides [1]: 0.9; Control serum LUMC looped peptides [1]: 0.4; Binding of serum 6 to linear peptides of protein N of SARS-CoV Urbani [2]: 0.3; Binding of serum 37 to linear peptides of protein N of SARS-CoV Urbani [2]: 0.9; Binding of serum 62 to linear peptides of protein N of SARS-CoV Urbani [2]: 0.9; Binding of serum London to linear peptides of protein N of SARS-CoV Urbani [2]: 1.4; Binding of serum SARS-green to linear peptides of protein N of SARS-CoV Urbani [2]: 0.6; Binding of serum SARS-yellow to linear peptides of protein N of SARS-CoV Urbani [2]: 1.5
KVSGKGQQQQGQTVT | 0.6 | 0.8 | 0.7 | 0.5 | – | 0.3 | – | 0.2 | – | 0.5 | 0.3 | 0.4 | 0.4 | 0.6 | 0.5 | 0.3 | 0.2 | 0.4 | 0.1 | 0.2 | Binding of serum 1a to linear peptide (PEPSCAN-ELISA) [2]: 0.3; Binding of serum 1b to linear peptide (PEPSCAN-ELISA) [2]: 0.1; Binding of serum 2 to linear peptide (PEPSCAN-ELISA) [2]: 0.3; Binding of serum 6 to linear peptide (PEPSCAN-ELISA) [2]: 0.2; Binding of serum 37 to linear peptide (PEPSCAN-ELISA) [2]: 0.6; Binding of serum 62 to linear peptide (PEPSCAN-ELISA) [2]: 0.6; Binding of serum London to linear peptide (PEPSCAN-ELISA) [2]: 0.5; Binding of serum SARS-green to linear peptide (PEPSCAN-ELISA) [2]: 0.6; Binding of serum SARS-yellow to linear peptide (PEPSCAN-ELISA) [2]: 0.6
